From patent US6410585B1, “Inhibitors of protein tyrosine phosphatase” (priority 1997, dated 2002) come the findings set out here.

Read-outs that look alike come from different tables or passages of the source.

In the assay the target is T1, rat PTP1 (Rattus norvegicus, UniProt P20417).
T1 construct: a C-terminal truncation of rat PTP1 (amino acid residues 1-322); GST (N, cleaved yes); made in house; host or cells: E. coli strain TG-1 (pGEX-2T)
T1 sequence (P20417 1-322): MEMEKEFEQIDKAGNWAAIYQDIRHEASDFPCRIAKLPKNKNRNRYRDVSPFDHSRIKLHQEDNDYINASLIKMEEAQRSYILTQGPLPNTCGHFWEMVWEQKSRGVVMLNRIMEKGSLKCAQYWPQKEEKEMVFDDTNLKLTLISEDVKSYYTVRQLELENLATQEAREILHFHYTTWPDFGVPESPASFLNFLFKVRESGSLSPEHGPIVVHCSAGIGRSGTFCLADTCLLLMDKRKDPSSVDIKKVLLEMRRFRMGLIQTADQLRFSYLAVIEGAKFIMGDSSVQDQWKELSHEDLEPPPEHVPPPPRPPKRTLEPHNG
Nature of the assay: PTP1 assay, pNPP hydrolysis (rate of change in A405). The assay is classed as biochemical. The gist of the method: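 Thrombin-cleaved rat PTP1 residues 1-322 (35 ng/ml) with 1 mM pNPP in 50 mM Hepes pH 7.2, NaCl, EDTA, DTT, BSA at room temperature. A405 rate followed 60 min. Compounds added as 10 mM solutions; percent inhibition relative to plate DMSO controls, 1 mM orthovanadate as full-inhibition control.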

Where [1] appears, read: Conc 1 uM, pNPP hydrolysis, Table 2, read-out: PTP1 Inhib PTP1N. % Inhib.
Where [2] appears, read: Conc 10 uM, pNPP hydrolysis, Table 2, read-out: PTP1 Inhib PTP1N. % Inhib.
Setting [3] is: Conc 100 uM, pNPP hydrolysis, Table 2, read-out: PTP1 Inhib PTP1N. % Inhib.
[4] abbreviates: Conc 1 uM, pNPP hydrolysis, Table 1, read-out: PTP1 Inhib % Inhib.
[5] abbreviates: Conc 10 uM, pNPP hydrolysis, Table 1, read-out: PTP1 Inhib % Inhib.
Where [6] appears, read: Conc 100 uM, pNPP hydrolysis, Table 1, read-out: PTP1 Inhib % Inhib.
Setting [7] is: inhibition of pNPP-hydrolysis, compound concentration 1 μM, read-out: % Inhibition.
The mark [8] stands for this setting: inhibition of pNPP-hydrolysis, compound concentration 10 μM, read-out: % Inhibition.
Setting [9] is: inhibition of pNPP-hydrolysis, compound concentration 100 μM, read-out: % Inhibition.

With `CCCCCNC(=O)C(C)(Cc1ccc(OC(C(=O)O)C(=O)O)cc1)NC(=O)CCC(=O)O` (stereo not drawn), the inhibition at 1 µM under setting [1] came out at 3%. The inhibition at 10 µM under setting [2] came to 6%. Besides, the inhibition at 100 µM under setting [3] came out at 34%.

As to `CCCCC/C=C/[C@H](Cc1ccc(OC(C(=O)O)C(=O)O)cc1)NC(=O)CCC(=O)O`, the inhibition at 1 µM under setting [1] came to 1%. The inhibition at 10 µM under setting [2] stood at 14%. Besides, the inhibition at 100 µM under setting [3] stood at 70%.

As to `CCCCCNC(=O)C(Cc1ccc(OC(COO)COO)cc1)NC(=O)NCC(=O)O` (stereo not drawn), under setting [4], the inhibition at 1 µM stood at 4%. Moreover, the inhibition at 10 µM under setting [5] is 23%. Moreover, under setting [6], the inhibition at 100 µM turned out to be 75%.

Consider `CC(C)(C)OC(=O)N[C@@H](Cc1ccccc1)C(=O)N[C@@H](Cc1ccc(OCC(=O)O)c(C(=O)O)c1)C(=O)NCCCCc1ccccc1` [Example 157-2, 5-{(2S)-2-({(2S)-2-[(tert-Butoxycarbonyl)amino]-3-phenylpropanoyl}amino)-3-oxo-3-[(4-phenylbutyl)amino]propyl}-2-(carboxymethoxy)benzoic Acid], for which, under setting [7], the inhibition at 1 µM worked out at 64%. Besides, the inhibition at 10 µM under setting [8] was determined as 93%. Moreover, under setting [9], the inhibition at 100 µM came to 98%.

Regarding `CCCCCNC(=O)C(Cc1ccc(OC(CCOO)COO)cc1)NC(=O)CCC(=O)O` (stereo not drawn), under setting [4], the inhibition at 1 µM was determined as 0%. The inhibition at 10 µM under setting [5] amounted to 1%. Also, under setting [6], the inhibition at 100 µM was 34%.

In the case of `CCCCCNC(=O)C(Cc1ccc(OC(C(=O)O)C(=O)O)c(F)c1)NC(=O)CCC(=O)O` (stereo not drawn), under setting [1], the inhibition at 1 µM stood at 4%. The inhibition at 10 µM under setting [2] amounted to 29%. Besides, under setting [3], the inhibition at 100 µM came to 78%.

With `CCCCCNC(=O)[C@H](Cc1ccc(OC(C(=O)O)C(=O)O)cc1)NC(=O)CC1(CC(=O)O)CCCC1`, under setting [4], the inhibition at 1 µM turned out to be 2%. Under setting [5], the inhibition at 10 µM was 20%. For the same molecule, the inhibition at 100 µM under setting [6] is 72%.

Take `CCCCCNC(=O)[C@H](Cc1ccc(OC(C(=O)O)C(=O)O)cc1)NC(=O)[C@H](CCC(=O)O)NC(=O)OC(C)(C)C`: the inhibition at 1 µM under setting [4] came out at 5%. Also, the inhibition at 10 µM under setting [5] turned out to be 34%. Besides, the inhibition at 100 µM under setting [6] was 83%.

Regarding `CC(C)CC(CO)NC(=O)C(Cc1ccc(OC(COO)COO)cc1)NC(=O)CCC(=O)O` (stereo not drawn), under setting [1], the inhibition at 1 µM came out at 3%. Also, the inhibition at 10 µM under setting [2] stood at 15%. Besides, the inhibition at 100 µM under setting [3] worked out at 57%.

On to `O=C(O)COc1ccc(C[C@H](NC(=O)c2ccccc2)C(=O)NCCCCc2ccc(Cl)cc2)cc1C(=O)O` [Example 154-19, 5-((2S)-2-(benzoylamino)-3-{[4-(4-chlorophenyl)butyl]amino}-3-oxopropyl)-2-(carboxymethoxy)benzoic acid], for which, under setting [7], the inhibition at 1 µM was found to be 40%. For the same molecule, under setting [8], the inhibition at 10 µM was 55%. Also, the inhibition at 100 µM under setting [9] worked out at 98%.

Take `CCCCCNC(=O)[C@H](Cc1ccc(CC(C(=O)O)C(=O)O)cc1)NC(=O)CCC(=O)O`: under setting [4], the inhibition at 1 µM came out at 0%. Besides, the inhibition at 10 µM under setting [5] was determined as 3%. In addition, under setting [6], the inhibition at 100 µM was 34%.

Take `CCCCCNC(=O)C(Cc1ccc(OC(COO)COO)cc1)NC(=O)C(Cc1ccc(OC)cc1)NC(=O)CCC(=O)O` (stereo not drawn): the inhibition at 1 µM under setting [1] was 32%. For the same molecule, the inhibition at 10 µM under setting [2] was found to be 83%. The inhibition at 100 µM under setting [3] turned out to be 98%.

For the molecule `CC(C)(C)OC(=O)N[C@@H](Cc1ccccc1)C(=O)N[C@@H](Cc1ccc(OCC(=O)O)c(C(=O)O)c1)C(=O)NCCCc1ccccc1` [Example 157-1, 5-{(2S)-2-({(2S)-2-[(tert-Butoxycarbonyl)amino]-3-phenylpropanoyl}amino)-3-oxo-3-[(3-phenylpropyl)amino]propyl}-2-(carboxymethoxy)benzoic Acid], the inhibition at 1 µM under setting [7] was 39%. Moreover, the inhibition at 10 µM under setting [8] came to 84%. In addition, the inhibition at 100 µM under setting [9] stood at 97%.

`CCCCCNC(=O)C(Cc1ccc(OC(COO)COO)cc1)NC(=O)NCCCCCC(=O)O` (stereo not drawn): the inhibition at 1 µM under setting [4] came out at 6%. Also, the inhibition at 10 µM under setting [5] came to 18%. Further, the inhibition at 100 µM under setting [6] was 63%.

Turning to `CCCCCCCCCCNC(=O)C(Cc1ccc(OC(COO)COO)cc1)NC(=O)CCC(=O)O` (stereo not drawn), under setting [4], the inhibition at 1 µM worked out at 4%. Moreover, the inhibition at 10 µM under setting [5] was 3%. In addition, under setting [6], the inhibition at 100 µM is 51%.
